Data on ten molecules can be found in patent US11931466B2, “Process for the preparation of drug loaded microparticles” (FERRING B.V., priority 2015, dated 2024).

Values after ≈ are worked out from the molar mass of the structure shown. Structures can show the parent of a compound that is named as a salt.

One may read the solubility as how much of the substance goes into solution per volume.

A short description of series [1]: physchem. The note with it: organic solvent or mixture.
The conditions of series [2]: 20° C.; cited from earlier work.

Turning to `O=C1CCc2ccc(OCCCCN3CCN(c4cccc(Cl)c4Cl)CC3)cc2N1` [Aripiprazole], the solubility in series [1] (20 °C) amounted to 400 mg/mL (≈ 892 mM). As for `CCN(C)C(=O)Oc1cccc([C@H](C)N(C)C)c1` [Rivastigmine tartrate], in series [1] (20 °C), the solubility was 200 mg/mL.

On to `Cc1nc2n(c(=O)c1CCN1CCC(c3noc4cc(F)ccc34)CC1)CCCC2` [Risperidone], for which the solubility in series [1] (20 °C) stood at 500 mg/mL (≈ 1220 mM). `CNCC[C@H](Oc1cccc2ccccc12)c1cccs1` [Duloxetine hydrochloride]: the solubility in series [1] (20 °C) is 400 mg/mL. Still for that read-out and setting: the result for `O=C(CCCN1CCC(O)(c2ccc(Cl)cc2)CC1)c1ccc(F)cc1` [Haloperidol] reads 110 mg/mL (≈ 293 mM). As for `Cc1nc2n(c(=O)c1CCN1CCC(c3noc4cc(F)ccc34)CC1)CCCC2O` (stereo not shown) [Paliperidone], the solubility in series [1] (60 °C) is 233 mg/mL (≈ 546 mM). As for `CC12CC3CC(C)(C1)CC(N)(C3)C2` [Memantine hydrochloride], in series [1] (20 °C), the solubility amounted to 130 mg/mL. In the case of `O=C1CC[C@@]2(O)[C@H]3Cc4ccc(O)c5c4[C@@]2(CCN3CC2CC2)[C@H]1O5` [Naltrexone hydrochloride], the solubility in series [1] (benzyl alcohol, 20 °C) worked out at 800 mg/mL.

In the case of `COc1cc(C(C)=O)ccc1OCCCN1CCC(c2noc3cc(F)ccc23)CC1` [Iloperidone], the solubility in series [1] (20 °C) is 200 mg/mL (≈ 469 mM). As to glycofurol, the solubility in water result in series [2] is “soluble”.
